Patent publication US20170021056A1, “PEPTIDE AMPHIPHILE BIOMATERIALS FOR NERVE REPAIR” (Northwestern University, priority 2015, published 2017)
The star is where a group is joined. Palmitoyl = CCCCCCCCCCCCCCCC(=O)*

What was measured:
[1] = tested on: Schwann cells (cell line RT4-D6P2T); experiment: Immunocytochemistry of actin and vinculin (focal adhesion protein) of Schwann cells in gels; format: cell-based, rat; conditions: 48 h culture
Method: (§1) Cells were purchased from ATCC (cell line RT4-D6P2T) and cultured in Dulbecco's Modified Eagle's Medium (DMEM) with 10% fetal bovine serum (FBS). Cells were cultured to confluence, treated with 0.25% trypsin, centrifuged, and resuspended in PBS for a final concentration of 3500 cells/ml for WST-1 proliferation assays and 10,000 cells/ml for immunocytochemistry (ICC).
(§2) Following completion of the slow cooling, each of the PA solutions was mixed with Schwann cell suspension in a 4:1 ratio. A final cell density of 3500 cells/ml was used for the WST-1 proliferation assays and 10,000 cells/ml for immunocytochemistry studies.
(§3) A […] volume of gelling solution consisting of 20 mM CaCl2, 150 mM NaCl, and 3 mM KCl was pipetted onto a glass slide to form a thin film. The PA-Schwann cell suspensions were then pipetted in […] aliquots onto the thin film, instantly forming a string-like gel, with cells encapsulated within. These cell-embedded gels were maintained free floating in DMEM with 10% FBS in culture plates and incubated at 37° C. Medium was changed every 72 h.
(§4) Volumetric ratios of 1 ml HEPES, 10 ml 10XPBS, 87 ml Collagen 10 mg/mL, and 2 ml Schwann cell PBS suspension were combined and mixed gently. Final cell density of 3500 cells/ml was used for the WST-1 proliferation assays and 10,000 cells/ml, for immunocytochemistry studies. The mixture was then pipetted into a culture well (either a 96-well plate or 2-welled microscopy slides), and after 1 h of curing and solidification at 37° C., medium was added gently to the wells and changed every 3 days.
PA-cell gels along with collagen-cell gels were fabricated through the aforementioned methods at a final cell density of 10,000 cells/ml. […] Specimens were then viewed with confocal microscopy (Confocal SP1 MP-Inverted, Leica Microsystems Inc., Buffalo Grove, Ill.) using oil magnification, and images were recorded.

[2] = tested on: Schwann cells (cell line RT4-D6P2T); experiment: WST-1 proliferation assay of Schwann cells in PA or collagen gels; format: cell-based, rat; conditions: for Schwann cell proliferation compared to backbone-PA gel: by 7 days of culture; for Schwann cell proliferation (viability measurements) compared to backbone-PA gel: day 1 of culture
Method: as §1
In order to synthesize the backbone-PA (consisting of only palmitoyl-VVAAEENH2) (SEQ ID NO: 3), the molecule was dissolved in aqueous 150 mM NaCl, 3 mM KCl, and NaOH solution to obtain a final 1 wt % solution at a pH between 7.2 and 7.4. In order to fabricate mixtures containing epitope-bearing PAs IKVAV (SEQ ID NO: 2) and RGDS (SEQ ID NO: 1) (consisting of palmitoyl-VVAAEE-NH2(SEQ ID NO: 3) with appended peptides, either RGDS (Arg-Gly-Asp-Ser) (SEQ ID NO: 1) or IKVAV (Ile-Lys-Val-Ala-Val) (SEQ ID NO: 2)), the backbone-PA was dissolved in aqueous 150 mM NaCl, 3 mM KCl, and NaOH solution to obtain a 1.33 wt % solution at a pH between 7.2 and 7.4. The epitope-containing PA was then dissolved with the same solution to obtain a 1 wt % solution at a pH between 7.2 and 7.4. The 1.33 wt % PA solution was then mixed in a 3:1 ratio with the 1% bioactive epitope solution creating a final bioactive PA solution of 1 wt % PA and 0.25 wt % bioactive epitope. The three resulting solutions (backbone-PA, RGDS-PA (SEQ ID NO: 1), and IKVAV-PA (SEQ ID NO: 2)) were then heated to 80° C. for 30 min in a water bath and left in the bath for slowcooling to 37° C. overnight (refs. 10,11; herein incorporated by reference in their entireties).
as §2, §3, §4
To evaluate the viability of cells within the gels, WST-1 reagent (Roche Applied Science, Indianapolis, Ind., USA) was used for each PA-cell and collagen gelecell complex. WST-1 assay has been widely used to measure cell proliferation. Aligned PA-cell gels along with collagen-cell gels were fabricated through the aforementioned methods at a final cell density of 3500 cells/ml. Gels were then cultured in 96-well plates for various time periods (days 1, 7, 14, and 21). Following each time point, gels were incubated for 90 min in medium containing 10% WST-1 assay reagent. Following incubation, […] of the conditioned medium were then transferred to a 96-well reading plate, and absorption values were read in a spectrophotometer at 450 nm. Measurements were repeated in sets of four.

Row | Substance | spatial arrangement of cytoskeletal actin of Schwann cells (actin stain) [1] | Schwann cell proliferation with time in gel ([2]; days 1, 7, 14, 21) | actin appearance, RGDS-PA compared with IKVAV-PA gels [1] | Schwann cell proliferation compared to backbone-PA gel [2] | Schwann cell proliferation (viability measurements) compared to backbone-PA gel [2] | day at which Schwann cell growth was maximal ([2]; no significant expansion or contraction at day 21) [days] | time over which Schwann cell proliferation was statistically increased vs. backbone-PA ([2]; p<0.05, ANOVA and Tukey-Kramer) [days] | Schwann cell proliferation, rank among all groups ([2]; through 21 days of culture)
1 | palmitoyl-VVAAEENH2 (Palmitoyl-VVAAEE-NH2) [backbone-PA] | marked linear arrangement | increasing proliferation with time |  |  |  |  |  | 
2 | IKVAV-PA: palmitoyl-VVAAEE-NH2 with appended IKVAV (Ile-Lys-Val-Ala-Val), mixed with backbone-PA: 1 wt % PA and 0.25 wt % bioactive epitope |  |  | no significant difference | significantly higher | proliferated more rapidly | 14 |  | 
3 | RGDS-PA: palmitoyl-VVAAEE-NH2 with appended RGDS (Arg-Gly-Asp-Ser), mixed with backbone-PA: 1 wt % PA and 0.25 wt % bioactive epitope |  |  | no significant difference | significantly higher | proliferated more rapidly |  | ≤ 21 | highest among all groups
